ChEMBL document CHEMBL1154782, “Discovery of Trp-His and His-Arg analogues as new structural classes of short antimicrobial peptides” (J Med Chem, 2009)
In brackets after ≈: the same amount, converted by molar mass. Where a SMILES comes first, the peptide text is derived from it.

Columns and labels:
Staphylococcus aureus [1] = experiment: Antibacterial activity against methicillin-resistant Staphylococcus aureus DSM 50128509 after 15 to 18 hrs under aerobic condition by modified broth microdilution method; format: functional
Staphylococcus aureus [2] = experiment: Antibacterial activity against methicillin-resistant Staphylococcus aureus DSM 50128509; format: functional, organism-based
[3] = tested on: Staphylococcus epidermidis; experiment: Antibacterial activity against methicillin-resistant Staphylococcus epidermidis DSM 50160384 after 15 to 18 hrs under aerobic condition by modified broth microdilution method; format: functional
[4] = tested on: Staphylococcus epidermidis; experiment: Antibacterial activity against methicillin-resistant Staphylococcus epidermidis DSM 50160384; format: functional, organism-based
Escherichia coli [5] = experiment: Antibacterial activity against Escherichia coli ATCC 35218 after 15 to 18 hrs under aerobic condition by modified broth microdilution method; format: functional
Escherichia coli [6] = experiment: Antibacterial activity against Escherichia coli ATCC 35218; format: functional, organism-based
Klebsiella pneumoniae [7] = experiment: Antibacterial activity against Klebsiella pneumoniae ATCC 700603 after 15 to 18 hrs under aerobic condition by modified broth microdilution method; format: functional
Pseudomonas aeruginosa = experiment: Antibacterial activity against Pseudomonas aeruginosa ATCC 9027 after 15 to 18 hrs under aerobic condition by modified broth microdilution method; format: functional
Candida albicans [8] = experiment: Antifungal activity against Candida albicans ATCC 10231 after 15 to 18 hrs under aerobic condition by modified broth microdilution method; format: functional
L929 = experiment: Cytotoxicity against mouse L929 cells up to 200 ug/mL after 5 days by MTT assay; format: cell-based; settings: l929, 120 h
Candida albicans [9] = experiment: Antifungal activity against Candida albicans ATCC 10231; format: functional, organism-based
Klebsiella pneumoniae [10] = experiment: Antibacterial activity against Klebsiella pneumoniae ATCC 700603; format: functional, organism-based

| Structure (SMILES) | MIC (Staphylococcus aureus [1]) [µg/mL] | IC50 (Staphylococcus aureus [2]) [µg/mL] | MIC [3] [µg/mL] | IC50 [4] [µg/mL] | MIC (Escherichia coli [5]) [µg/mL] | IC50 (Escherichia coli [6]) [µg/mL] | MIC (Klebsiella pneumoniae [7]) [µg/mL] | MIC (Pseudomonas aeruginosa) [µg/mL] | MIC (Candida albicans [8]) [µg/mL] | Activity (L929) | IC50 (Candida albicans [9]) [µg/mL] | IC50 (Klebsiella pneumoniae [10]) [µg/mL] |
| --- | --- | --- | --- | --- | --- | --- | --- | --- | --- | --- | --- | --- |
| COC(=O)[C@H](Cc1c[nH]c(C(C)(C)C)n1)NC(=O)[C@@H](N)Cc1c[nH]c2ccccc12 | 10 (≈ 24.3 µM) | 4.21 (≈ 10.2 µM) | 100 (≈ 243 µM) | 6.73 (≈ 16.4 µM) | 200 (≈ 486 µM) | 19 (≈ 46.2 µM) | > 200 | > 200 | > 200 | Non-toxic | – | – |
| COC(=O)[C@H](Cc1c[nH]cn1)NC(=O)[C@@H](N)Cc1c[nH]c2ccccc12 (H-Trp-His-OMe) | > 200 | – | > 200 | – | 200 (≈ 563 µM) | 18.5 (≈ 52.1 µM) | > 200 | > 200 | 200 (≈ 563 µM) | Non-toxic | 20.6 (≈ 58 µM) | – |
| N[C@@H](Cc1c[nH]c2ccccc12)C(=O)N[C@@H](Cc1c[nH]c(C2CCC2)n1)C(=O)NCc1ccccc1 | 100 (≈ 206 µM) | 27.1 (≈ 55.9 µM) | 50 (≈ 103 µM) | 8.51 (≈ 17.6 µM) | 200 (≈ 413 µM) | 22.5 (≈ 46.4 µM) | > 200 | > 200 | 100 (≈ 206 µM) | Non-toxic | 10.3 (≈ 21.3 µM) | – |
| CC(C)(C)OC(=O)N[C@@H](Cc1c[nH]c(C2CCC2)n1)C(=O)N[C@@H](CCCNC(=N)N)C(=O)NCc1ccccc1 | > 200 | – | 200 (≈ 361 µM) | 19.3 (≈ 34.8 µM) | > 200 | – | 200 (≈ 361 µM) | > 200 | > 200 | Non-toxic | – | 20.8 (≈ 37.5 µM) |
| COC(=O)[C@H](Cc1c[nH]c(C2CCC2)n1)NC(=O)[C@@H](N)Cc1c[nH]c2ccccc12 | 200 (≈ 488 µM) | 9.54 (≈ 23.3 µM) | 200 (≈ 488 µM) | 14.5 (≈ 35.5 µM) | 200 (≈ 488 µM) | 9.48 (≈ 23.2 µM) | > 200 | > 200 | 200 (≈ 488 µM) | Non-toxic | 18.2 (≈ 44.6 µM) | – |
| COC(=O)[C@H](Cc1c[nH]c(C23CC4CC(CC(C4)C2)C3)n1)NC(=O)[C@@H](N)Cc1c[nH]c2ccccc12 | 20 (≈ 40.8 µM) | 2.3 (≈ 4.7 µM) | 20 (≈ 40.8 µM) | 4.59 (≈ 9.37 µM) | > 200 | – | 200 (≈ 408 µM) | > 200 | > 200 | Non-toxic | – | 24.4 (≈ 49.9 µM) |
| COC(=O)[C@H](Cc1c[nH]c(C2CCC2)n1)NC(=O)[C@H](Cc1c[nH]c2ccccc12)NC(=O)OC(C)(C)C | 100 (≈ 196 µM) | 2.95 (≈ 5.79 µM) | 100 (≈ 196 µM) | 5.44 (≈ 10.7 µM) | 200 (≈ 392 µM) | 24.6 (≈ 48.3 µM) | > 200 | > 200 | > 200 | Non-toxic | – | – |
| COC(=O)[C@H](Cc1c[nH]c(C(C)(C)C)n1)NC(=O)[C@H](Cc1c[nH]c2ccccc12)NC(=O)OC(C)(C)C | 50 (≈ 97.7 µM) | 4.35 (≈ 8.5 µM) | 100 (≈ 195 µM) | 8.12 (≈ 15.9 µM) | 200 (≈ 391 µM) | 16.3 (≈ 31.8 µM) | > 200 | > 200 | > 200 | Non-toxic | – | – |
| COC(=O)[C@H](Cc1c[nH]c(C23CC4CC(CC(C4)C2)C3)n1)NC(=O)[C@H](Cc1c[nH]c2ccccc12)NC(=O)OC(C)(C)C | 20 (≈ 33.9 µM) | 1.69 (≈ 2.87 µM) | 50 (≈ 84.8 µM) | 4.03 (≈ 6.83 µM) | 100 (≈ 170 µM) | 6.59 (≈ 11.2 µM) | > 200 | > 200 | 200 (≈ 339 µM) | Non-toxic | 26.6 (≈ 45.1 µM) | – |
| COC(=O)[C@H](Cc1c[nH]c(C2CCCCC2)n1)NC(=O)[C@@H](N)Cc1c[nH]c2ccccc12 | 100 (≈ 229 µM) | 10.1 (≈ 23.1 µM) | 200 (≈ 457 µM) | 12.5 (≈ 28.5 µM) | > 200 | – | 200 (≈ 457 µM) | > 200 | > 200 | Non-toxic | – | 29.4 (≈ 67.1 µM) |
| COC(=O)[C@H](Cc1c[nH]c(C(C)C)n1)NC(=O)[C@@H](N)Cc1c[nH]c2ccccc12 | 200 (≈ 503 µM) | 13.1 (≈ 33 µM) | > 200 | – | 200 (≈ 503 µM) | 12.2 (≈ 30.7 µM) | > 200 | > 200 | 200 (≈ 503 µM) | Non-toxic | 15.6 (≈ 39.3 µM) | – |
| CN[C@@H]1[C@H](O[C@H]2[C@H](O[C@H]3[C@H](O)[C@@H](O)[C@H](N=C(N)N)[C@@H](O)[C@@H]3N=C(N)N)O[C@@H](C)[C@]2(O)C=O)O[C@@H](CO)[C@H](O)[C@H]1O [STREPTOMYCIN] | – | – | – | – | – | 0.73 (≈ 1.26 µM) | – | – | – | – | – | – |
| N[C@@H](Cc1c[nH]c2ccccc12)C(=O)N[C@@H](Cc1c[nH]c(C2CCCCC2)n1)C(=O)NCc1ccccc1 | 10 (≈ 19.5 µM) | 4.8 (≈ 9.36 µM) | 50 (≈ 97.5 µM) | 7.54 (≈ 14.7 µM) | > 200 | – | 50 (≈ 97.5 µM) | > 200 | 100 (≈ 195 µM) | Non-toxic | 8.41 (≈ 16.4 µM) | 17.4 (≈ 33.9 µM) |
| COC(=O)[C@H](CCCNC(=N)N)NC(=O)[C@@H](N)Cc1c[nH]c(C(C)C)n1 | 50 (≈ 136 µM) | 4.82 (≈ 13.1 µM) | 50 (≈ 136 µM) | 5.42 (≈ 14.8 µM) | 200 (≈ 544 µM) | 9.98 (≈ 27.2 µM) | > 200 | > 200 | > 200 | Non-toxic | – | – |
| CC(C)(C)OC(=O)N[C@@H](Cc1c[nH]c(C(C)(C)C)n1)C(=O)N[C@@H](CCCNC(=N)N)C(=O)NCc1ccccc1 | 200 (≈ 359 µM) | 17.5 (≈ 31.5 µM) | > 200 | – | 100 (≈ 180 µM) | 12 (≈ 21.6 µM) | > 200 | > 200 | 200 (≈ 359 µM) | Non-toxic | 33.1 (≈ 59.5 µM) | – |
| COC(=O)[C@H](Cc1c[nH]c(C2CCCCC2)n1)NC(=O)[C@H](Cc1c[nH]c2ccccc12)NC(=O)OC(C)(C)C | 200 (≈ 372 µM) | 14 (≈ 26 µM) | 50 (≈ 93 µM) | 6.29 (≈ 11.7 µM) | 200 (≈ 372 µM) | 20.9 (≈ 38.8 µM) | > 200 | > 200 | 200 (≈ 372 µM) | Non-toxic | 17.7 (≈ 32.9 µM) | – |
| COC(=O)[C@H](CCCNC(=N)N)NC(=O)[C@@H](N)Cc1c[nH]c(C2CCC2)n1 | 200 (≈ 527 µM) | 9.28 (≈ 24.5 µM) | 100 (≈ 264 µM) | 6.66 (≈ 17.6 µM) | 200 (≈ 527 µM) | 15.3 (≈ 40.3 µM) | > 200 | > 200 | 200 (≈ 527 µM) | Non-toxic | 14 (≈ 36.8 µM) | – |
| NC[C@@H]1O[C@H](O[C@H]2[C@@H](O)[C@H](O[C@@H]3[C@@H](O)[C@H](N)C[C@H](N)[C@H]3O[C@H]3O[C@H](CN)[C@@H](O)[C@H](O)[C@H]3N)O[C@@H]2CO)[C@H](N)[C@@H](O)[C@@H]1O [FRAMYCETIN] | – | – | – | – | – | – | – | – | – | – | – | 0.6 (≈ 0.976 µM) |
| CC(C)(C)OC(=O)N[C@@H](Cc1c[nH]c2ccccc12)C(=O)N[C@@H](Cc1c[nH]c(C23CC4CC(CC(C4)C2)C3)n1)C(=O)NCc1ccccc1 | 100 (≈ 150 µM) | 7.59 (≈ 11.4 µM) | 200 (≈ 301 µM) | 29.1 (≈ 43.7 µM) | > 200 | – | 200 (≈ 301 µM) | > 200 | 200 (≈ 301 µM) | Non-toxic | 28.3 (≈ 42.6 µM) | – |
